In ChEMBL document CHEMBL1131221, “2'-C-Methyl analogues of selective adenosine receptor agonists: synthesis and binding studies” (J Med Chem, 1998):

Key:
Adenosine receptor A3 = biological target: T1, Adenosine receptor A3 (Rattus norvegicus, UniProt P28647); assay: Inhibitory activity against Adenosine A3 receptor by inhibiting specific [3H](R)-PIA binding to rat testis membranes; parameters: species or system Membrane
T1 sequence (P28647 whole entry): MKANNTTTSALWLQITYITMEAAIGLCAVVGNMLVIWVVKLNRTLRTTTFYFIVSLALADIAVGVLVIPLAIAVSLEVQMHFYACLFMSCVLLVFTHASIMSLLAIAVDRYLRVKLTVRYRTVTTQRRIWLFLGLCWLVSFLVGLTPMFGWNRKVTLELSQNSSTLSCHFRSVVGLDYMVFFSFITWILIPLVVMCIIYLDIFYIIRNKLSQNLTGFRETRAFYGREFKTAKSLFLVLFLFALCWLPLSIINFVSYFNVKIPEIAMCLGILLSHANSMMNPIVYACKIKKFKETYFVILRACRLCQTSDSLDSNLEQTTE

[1] = Inhibitory selectivity at Adenosine A3 receptor compared to Adenosine 1 receptor.
[2] = Inhibitory selectivity at Adenosine A3 receptor compared to Adenosine 2A receptor.
[3] = Inhibitory selectivity at Adenosine 2A receptor compared to Adenosine 1 receptor.
Adenosine receptor A1 = biological target: T2, Adenosine receptor A1 (Bos taurus, UniProt P28190)
T2 sequence (P28190 whole entry): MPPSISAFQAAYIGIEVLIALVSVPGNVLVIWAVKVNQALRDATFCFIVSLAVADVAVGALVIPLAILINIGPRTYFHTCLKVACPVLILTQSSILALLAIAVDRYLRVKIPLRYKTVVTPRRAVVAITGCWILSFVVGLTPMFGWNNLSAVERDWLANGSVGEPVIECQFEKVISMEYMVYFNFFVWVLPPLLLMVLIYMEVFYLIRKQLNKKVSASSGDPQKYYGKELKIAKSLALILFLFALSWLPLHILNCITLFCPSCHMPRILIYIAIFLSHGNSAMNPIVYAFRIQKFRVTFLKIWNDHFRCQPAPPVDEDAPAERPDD
Description: Inhibitory activity at Adenosine A1 receptor by inhibition of [3H]CHA binding to bovine brain cortical membranes.

Adenosine receptor A2a = Adenosine receptor A2a (Homo sapiens, UniProt P29274)
Description: Inhibitory activity at Adenosine A2A receptor by inhibition of [3H]-CGS- 21680 binding to bovine striatal membranes.

Rattus norvegicus [4] = species on record: Rattus norvegicus; assay: (§1) Inhibitory activity against Adenylyl cyclase in rat cortical membranes in the presence of 2''-IB-Ado at concentration 30 nM; type: functional
Rattus norvegicus [5] = species on record: Rattus norvegicus; assay: (§2) Inhibitory activity against Adenylyl cyclase in rat cortical membranes in the presence of 2''-Me-CPA at concentration 50 nM; type: functional
Rattus norvegicus [6] = species on record: Rattus norvegicus; assay: The compound was tested for the concentration to inhibit 50% of Adenylyl cyclase activity in rat cortical membranes.; type: functional
Rattus norvegicus [7] = species on record: Rattus norvegicus; assay: as §1; type: functional; remark: listed apart in the source
Rattus norvegicus [8] = species on record: Rattus norvegicus; assay: (§3) Inhibitory activity against Adenylyl cyclase in rat cortical membranes in the presence of 2''-Me-CCPA at concentration 30 nM; type: functional
Rattus norvegicus [9] = species on record: Rattus norvegicus; assay: as §2; type: functional; remark: listed apart in the source
Rattus norvegicus [10] = species on record: Rattus norvegicus; assay: Maximal % inhibition of adenylyl cyclase activity in rat cortical membranes at a concentration of 10 uM.; type: functional
Rattus norvegicus [11] = species on record: Rattus norvegicus; assay: as §3; type: functional; remark: listed apart in the source
[12] = biological target: T3, Adenosine receptor A3 (Rattus norvegicus) (UniProt P28647); assay: Inhibitory activity against Adenosine A3 receptor by inhibition of [3H](R)-PIA binding to rat testis membranes; type: cell membranes; details: Membrane, concentration not given here
T3 sequence (whole entry): T1 sequence (P28647 whole entry)

Sequence of Adenosine receptor A2a (P29274 whole entry): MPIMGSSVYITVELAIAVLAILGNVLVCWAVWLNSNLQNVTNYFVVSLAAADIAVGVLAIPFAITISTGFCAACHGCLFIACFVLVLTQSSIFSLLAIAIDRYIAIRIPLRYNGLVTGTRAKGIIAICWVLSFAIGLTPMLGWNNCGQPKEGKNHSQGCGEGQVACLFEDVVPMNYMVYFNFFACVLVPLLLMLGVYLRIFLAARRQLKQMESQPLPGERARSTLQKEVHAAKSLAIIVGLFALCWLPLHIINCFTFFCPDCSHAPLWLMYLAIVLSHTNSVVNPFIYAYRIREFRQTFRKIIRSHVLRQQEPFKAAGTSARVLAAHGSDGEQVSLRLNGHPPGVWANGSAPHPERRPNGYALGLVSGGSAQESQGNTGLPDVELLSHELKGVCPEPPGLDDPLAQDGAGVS

Row | Structure (SMILES) | Ki (Adenosine receptor A3) [nM] | Ki (Adenosine receptor A1) [nM] | Ki (Adenosine receptor A2a) [nM] | IC50 (Rattus norvegicus [6]) [nM] | Max inhibition (Rattus norvegicus [10]) [%] | further results
1 | C[C@@H](Cc1ccccc1)Nc1ncnc2c1ncn2[C@@H]1O[C@H](CO)[C@@H](O)[C@H]1O [(S)-PIA] | 241 |  |  |  |  | 
2 | CCNC(=O)[C@H]1O[C@@H](n2cnc3c(N)ncnc32)[C@](C)(O)[C@@H]1O | 550 | 142 | 218 |  |  | Selectivity [1]: 3.8; Selectivity [2]: 2.5; Selectivity [3]: 1.5
3 | C[C@H](Cc1ccccc1)Nc1ncnc2c1ncn2[C@@H]1O[C@H](CO)[C@@H](O)[C@H]1O [(R)-PIA] | 53 |  |  |  |  | 
4 | OC[C@H]1O[C@@H](n2cnc3c(NC4CCCCC4)ncnc32)[C@H](O)[C@@H]1O |  |  |  | 1.4 | 16.2 | IC50 (Rattus norvegicus [4]): 1.5 nM; IC50 (Rattus norvegicus [5]): 1.4 nM; Max inhibition (Rattus norvegicus [7]): 16%; Max inhibition (Rattus norvegicus [8]): 16.1%; Max inhibition (Rattus norvegicus [9]): 16.2%; IC50 (Rattus norvegicus [11]): 1.6 nM
5 | C[C@H](Cc1ccccc1)Nc1ncnc2c1ncn2[C@@H]1O[C@H](CO)[C@@H](O)[C@@]1(C)O | 1080 | 4.7 | 7440 | 1.6 | 13.7 | 
6 | Nc1nc(Cl)nc2c1ncn2[C@@H]1O[C@H](CO)[C@@H](O)[C@H]1O | 3200 | 20.2 | 120 |  |  | Selectivity [1]: 158; Selectivity [2]: 26.6; Selectivity [3]: 5.9
7 | C[C@@]1(O)[C@H](O)[C@@H](CO)O[C@H]1n1cnc2c(NC3CCCC3)nc(Cl)nc21 | 5000 | 1.8 |  | 13.1 | 15.1 | 
8 | CNC(=O)[C@H]1OC(n2cnc3c(NCc4cccc(I)c4)ncnc32)[C@](C)(O)[C@@H]1O (stereo partly drawn) | 320 | 254 | 1530 |  |  | Selectivity [1]: 1.2; Selectivity [2]: 0.2; Selectivity [3]: 6
9 | C[C@]1(O)C(n2cnc3c(N)nc(Cl)nc32)O[C@H](CO)[C@H]1O (stereo partly drawn) |  | 533 |  |  |  | inhibition [12]: 10%
10 | C[C@@]1(O)[C@@H](CO)O[C@@H](n2cnc3c(N)ncnc32)[C@@H]1O |  | 49500 |  |  |  | inhibition [12]: 8%
11 | C[C@@]1(O)[C@H](O)[C@@H](CO)O[C@H]1n1cnc2c(NCc3cccc(I)c3)ncnc21 |  | 20.1 |  | 1.6 | 10.9 | 
12 | OC[C@H]1O[C@@H](n2cnc3c(NC4CCCC4)nc(Cl)nc32)[C@H](O)[C@@H]1O |  | 0.35 | 580 |  |  | 
13 | CNC(=O)[C@H]1O[C@@H](n2cnc3c(NCc4cccc(I)c4)ncnc32)[C@H](O)[C@@H]1O [IB-MECA] |  | 33.1 |  |  |  | 
14 | C[C@@]1(O)[C@H](O)[C@@H](CO)O[C@H]1n1cnc2c(NC3CCCC3)ncnc21 | 208 | 9.5 |  | 2.3 | 11 | 
15 | C[C@@H](Cc1ccccc1)Nc1ncnc2c1ncn2C1O[C@H](CO)[C@@H](O)[C@@]1(C)O (stereo partly drawn) | 10000 | 50 |  |  |  | 
16 | OC[C@H]1O[C@@H](n2cnc3c(NC4CCCC4)ncnc32)[C@H](O)[C@@H]1O [N6-CYCLOPENTYLADENOSINE] |  |  | 385 | 11.6 | 15.5 | 
17 | OC[C@H]1O[C@@H](n2cnc3c(NCc4cccc(I)c4)ncnc32)[C@H](O)[C@@H]1O |  | 18.6 |  |  |  | 
18 | C[C@@]1(O)[C@H](O)[C@@H](CO)O[C@H]1n1cnc2c(N)ncnc21 |  |  |  |  |  | inhibition [12]: 0%
